Laboratory results published in US10722519B2, “Aerosol fluoroquinolone formulations for improved pharmacokinetics” (priority 2008, dated 2020).
Converted amounts (≈) assume the structure as drawn. Where two headings read alike, the source gives them in different places.

What was measured:
[1] = tested on: P. aeruginosa ATCC 27853; test: MIC, broth microdilution; type: cell-based; conditions: Pseudomonas aeruginosa, ATCC27853, P. aeruginosa ATCC27853
Method: (§1) Bacterial strains MIC testing: P. aeruginosa ATCC 27853 and NH57388A were used in these studies. MICs were determined by a broth microdilution assay according to CLSI reference methods (Methods for dilution of antimicrobial susceptibility test for bacteria that grow aerobically. Seventh Edition: Clinical and Laboratory Standards Institute (2006) M&-A7, incorporated by reference in its entirety). Assays were performed in a final volume of 100 μl. The bacterial suspensions were adjusted to yield a cell density of 5×10^5 CFU/ml. Antibiotics were prepared at a concentration equivalent to twofold the highest desired final concentration in culture medium and were then diluted directly into 96-well microtiter plates. Microtiter plates were incubated for 24 h at 35° C. and were read by using a microtiter plate reader (Molecular Devices) at 600 nm as well as by visual observation by using a microtiter plate reading mirror.

[2] = tested on: P. aeruginosa NH57388A; test: MIC, broth microdilution; type: cell-based; conditions: Pseudomonas aeruginosa, NH57388A, P. aeruginosa NIH57388A CF; read-out: MIC
Method: as §1

[3] = Sprague-Dawley, rat, in vivo, 10 mg/kg
[4] = Mouse lung homogenate pharmacokinetics; conditions: IP, 20 mg/kg normalized to 60 mg/kg
Method: Mice were sacrificed at 0.08, 0.16, 0.25, 0.5, 0.75, 1.0, 2.0, 3.0, and 4.0 h after dosing and their lungs collected. […] Analytical standards (0.05 to 100 mg/L) were prepared in fresh mouse lung homogenate collected from untreated animals. […] Aliquots of the supernatant (25 μl) were injected directly onto the HPLC using a temperature-controlled autoinjector set at 10° C. Standard curves were constructed of the peak area versus standard concentration, and the data were fit using weighted linear regression (Microsoft Excel, Seattle, Wash.). […] The lung pharmacokinetic parameters were determined using WinNonlin (Pharsight, Mountain View, Calif.).

[5] = tested on: P. aeruginosa; conditions: simulated ELF
[6] = in vivo; conditions: Sprague-Dawley, rat, 10 mg/kg
[7] = in vivo; conditions: male, Sprague-Dawley, rat, in vivo, 10 mg/kg
Method: This example relates to aerosol and intravenous administration of fluoroquinolones in saline. A rat pharmacokinetic model was used to compare intravenous and pulmonary administration of fluoroquinolones. […] Doses were administered via the lateral tail vein, or to the lung just above the tracheal bifurcation using a micro-spray aerosol device (Penn Century, Philadelphia, Pa.).
Approximately 0.3 ml blood samples were taken from 2-6 rats at each timepoint via an indwelling jugular vein cannula, and collected in lithium heparin tubes. Bronchial alveolar lavage (BAL) and lung tissue were collected following euthanasia. […] Sample concentrations were determined against a standard curve.

[8] = clinical
Method: This analysis compares the appearance and elimination of drug following aerosol and intravenous doses to determine the amount of drug remaining in the lung (absorption compartment) over time. To estimate concentrations of drug in lung, amounts were divided by estimates of the epithelial lung fluid (ELF) volume (25 ml) for each subject. Non-compartmental pharmacokinetic analysis was subsequently applied to these projected concentrations of drug in the lung to determine AUCs.

[9] = tested on: P. aeruginosa NH57388A; test: Chronic mouse lung infection model; type: in vivo; conditions: mice, twice daily for 72 h
Method: Bacterial cells were harvested by centrifugation (23,000×g, 30 min, at 4° C.) and resuspended in 3-6 ml of MHB. The supernatant was collected and placed in 80° C. water-bath for 30 min. […] The precipitated alginate was collected with a sterile bacterial loop and washed several times in sterile saline. The purified alginate was then resuspended in 10 ml of sterile saline and stirred vigorously to form a homogeneous suspension. […] The bacterial suspension was diluted (1:10) in the alginate suspension to yield about 10^8 CFU/ml. […] On day 4, the mice were infected using a curved bead-tipped oral gavage attached to a 1 ml syringe while under isoflurane anesthesia.

[10] = tested on: P. aeruginosa ATCC 27853; test: Acute mouse lung infection model; conditions: mice, 2 doses over 24 h
Method: Aerosol Administration of antibiotics: Antibiotics were aerosolized using a microspray aerosol device (MicroSprayer Model IA-C, PennCentury, Philadelphia, Pa.) attached to a FMJ-250 High-Pressure Syringe (PennCentury, Philadelphia, Pa.). […] For administration, each mouse was anesthetized (5% isoflurane in oxygen running at 4 L/min) and positioned securely at a 45-50° angle by the upper teeth, the microspray aerosol tip was inserted to the bifurcation and a 50 μl volume was administered.
The bacterial suspensions were adjusted to approximately 1-6×10^5 CFU/ml by correlation of the absorbance at 600 nm with predetermined plate counts. […] On day 4, mice were infected by intratracheal (IT) instillation of 0.05 ml of inoculum using a curved oral gavage tip attached to a 1 ml syringe. […] Antibiotics were aerosolized using a microspray aerosol device. All infections and aerosol treatments were performed under isoflurane anesthesia (5% isoflurane in oxygen running at 4 L/min). An untreated group of mice (n=8) was sacrificed prior to the initiation of treatment to determine baseline bacterial counts. […] The lungs were removed aseptically and homogenized (Pro200 homogenizer, Pro Scientific, Monroe, Conn.) in 1 ml of sterile saline. Serial 10-fold dilutions of the homogenized lung were plated on Mueller-hinton agar (MHA), and colonies counted.
In addition, due to the need for anesthesia for treatment, the maximum number of daily doses was limited to two.

[11] = serum, 5 minute IV infusion 50 mg, single healthy volunteer

C[C@H]1COc2c(N3CCN(C)CC3)c(F)cc3c(=O)c(C(=O)O)cn1c23 [Levofloxacin, levofloxacin]
MIC [1]: 1 µg/mL (≈ 2.77 µM)
MIC [2]: 2 µg/mL (≈ 5.53 µM)
F, % from Lung vs IV [3]: 97%
AUC (Normalized to 60 mg/kg) [4]: 12.3 mg·h/kg
Cmax (Normalized to 60 mg/kg) [4]: 18.6 mg/kg
24 h AUC ([5]; 20 mg BID): 700 mg·h/L
Cmax ([5]; 20 mg BID): 500 mg/L
24 h AUC ([5]; 40 mg BID): 1,400 h · mg/L
Cmax ([5]; 40 mg BID): 1,000 mg/L
24 h AUC ([5]; 80 mg BID): 2,800 h · mg/L
Cmax ([5]; 80 mg BID): 2,000 mg/L
24 h AUC ([5]; 120 mg BID): 4,200 h · mg/L
Cmax ([5]; 120 mg BID): 3,000 mg/L
MRT ([6]; inhaled or intranasal): 42 min
half-life ([6]; inhaled or intranasal): 30 min
MRT ([6]; iv): 42 min
half-life ([6]; iv): 30 min
F, % from Lung vs IV [7]: 97%
MAT [7]: 0 h
AUC ([7]; inhaled or intranasal): 3000 ng·h/mL
AUC(0-inf) ([7]; inhaled or intranasal): 3700 ng·h/mL
MRT ([7]; inhaled or intranasal): 42 min
half-life ([7]; inhaled or intranasal): 30 min
AUC ([7]; iv): 1600 ng·h/mL
AUC(0-inf) ([7]; iv): 3800 ng·h/mL
MRT ([7]; iv): 42 min
half-life ([7]; iv): 30 min
Vd ([8]; human, in vivo, iv): 135 L
clearance ([8]; human, in vivo, iv): 266 mL/min
A [8, 11]: 2.05 mg/L
B [8, 11]: 0.30 mg/L
V2 [8, 11]: 114.03 L
log increase in bacterial counts ([9]; intraperitoneal 15 mg/kg in saline): 0.83 log
log increase in bacterial counts ([9]; intraperitoneal 30 mg/kg in saline): 0.32 log
log increase in bacterial counts ([9]; intraperitoneal 60 mg/kg in saline): 0.15 log
reductions in lung bacterial counts ([10]; systemic (IP) 32 mg/kg): 0.65 log CFU
reductions in lung bacterial counts ([10]; systemic (IP) 62.5 mg/kg): 2.7 log CFU
